Laboratory results as given in publication PMC6811774, “Potent, selective, and subunit‐dependent activation of TRPC5 channels by a xanthine derivative” (British Journal of Pharmacology, 2019).

Columns and labels:
TRPC4:C1 channels [1] = target: T1, TRPC4:C1 channels (Homo sapiens, UniProt P48995+Q9UBN4); experiment: [Ca2+]i measurement in (Tet+) HEK T-REx cells expressing hTRPC4-C1 concatemer; type: cell-based
Protocol: HEK T‐REx™ cell line was transfected with TRPC5‐SYFP2 or TRPC4‐SYFP2 using FuGENE® HD transfection reagent. After 48 hr, cells were put under antibiotic selection using 400 μg·ml^−1 zeocin and 10 μg·ml^−1 blasticidin S (Invivogen, San Diego, California, USA). Medium changes were carried out regularly to remove dead cells. HEK T‐REx cells expressing tetracycline‐inducible human TRPC5, TRPC4–C1, and TRPC5–C1 were created as described previously (Akbulut et al., 2015; Ludlow et al., 2017; Rubaiy, Ludlow, Henrot, et al., 2017). TRPC5–C1 and TRPC4–C1 concatemers allow expression of functional channels with defined 2:2 stoichiometry that display ion permeability and current–voltage relationships distinct from those of homomeric TRPC4:C4 or TRPC5:C5 channels and consistent with those obtained upon co‐expression of TRPC1 with TRPC4 or TRPC5 (Ludlow et al., 2017; Rubaiy, Ludlow, Bon, & Beech, 2017; Rubaiy, Ludlow, Henrot, et al., 2017). Cells were cultured in DMEM‐F12 GlutaMAX (Invitrogen, Paisley, UK) containing 10% FBS (Sigma‐Aldrich, Gillingham, UK), with the addition of blasticidin (10 μg·ml^−1) and zeocin (400 μg·ml^−1) to maintain the stable incorporation of the tetracycline repressor and the channel of interest, respectively. Expression of proteins was induced by the addition of tetracycline (1 μg·ml^−1, 24 hr). Cells were maintained in a humidified incubator with 5% CO2 at 37°C. HEK 293 cells stably expressing tetracycline‐regulated human http://www.guidetopharmacology.org/GRAC/ObjectDisplayForward?objectId=494 were prepared similarly and have also been described previously (McHugh, Flemming, Xu, Perraud, & Beech, 2003). For experiments using transient co‐expression of TRPC1 and TRPC5, HEK cells at 40–60% confluency were transfected with pIRES2‐AcGFP1 and pIRES2‐DsRed‐Express2 plasmids containing human TRPC1 and TRPC5, respectively, using Lipofectamine 3000 (ThermoFisher Scientific, Yokohama, Japan). All experiments using transient expression were performed within 48 hr after transfection. […]

TRPM2 = target: T2, TRPM2 (Homo sapiens, UniProt O94759); experiment: [Ca2+]i selectivity assay, (Tet+) HEK T-REx cells expressing TRPM2, H2O2 activation; type: cell-based; conditions: 300 nM AM237; 1 mM H2O2
T2 construct: expressed in transfected cells

WT HEK 293 cells = experiment: Whole-cell patch-clamp in WT HEK 293 cells; type: cell-based, human; conditions: AM237 1–100 nM; EA 30 nM
Protocol: For electrophysiology experiments, cells were plated at a low density of 20–30% onto round or square glass coverslips (13 mm diameter or 5 × 5 mm), and TRPC expression in HEK T‐REx was induced with 1 μg·ml^−1 tetracycline 24 hr before experimentation. Experiments were carried out at room temperature. Extracellular solution consisted of SBS. Patch‐clamp recordings were performed in whole‐cell mode (Figure S7) and in excised outside‐out patch mode under voltage clamp at room temperature using 2–4 MΩ patch pipettes fabricated from borosilicate glass capillaries with an outside diameter of 1 mm and an inside diameter of 0.58 mm (Harvard Apparatus). The voltage protocol comprised voltage ramps applied from −100 to +100 mV every 10 s from a holding potential of 0 mV. […] All solutions were filtered using a 0.2 μm filter (Sartorius, UK).
TRPC4:C1 channels [2] = target: T1, TRPC4:C1 channels; experiment: Excised outside-out patch-clamp, HEK 293 cells transiently co-expressing hTRPC4 and hTRPC1; type: cell-based; design: expressed in transfected cells; host or cells: HEK 293 (transient co-expression); conditions: 30 nM EA; at 3 to 100 nM AM237
Protocol: For electrophysiology experiments, cells were plated at a low density of 20–30% onto round or square glass coverslips (13 mm diameter or 5 × 5 mm), and TRPC expression in HEK T‐REx was induced with 1 μg·ml^−1 tetracycline 24 hr before experimentation. Experiments were carried out at room temperature. Extracellular solution consisted of SBS. Patch‐clamp recordings were performed in whole‐cell mode (Figure S7) and in excised outside‐out patch mode under voltage clamp at room temperature using 2–4 MΩ patch pipettes fabricated from borosilicate glass capillaries with an outside diameter of 1 mm and an inside diameter of 0.58 mm (Harvard Apparatus). The voltage protocol comprised voltage ramps applied from −100 to +100 mV every 10 s from a holding potential of 0 mV. The patch‐clamp currents were recorded using Axopatch 200B or HEKA EPC‐800 amplifiers, digitized by a Digidata 1440 or PCI6229 (National Instruments Japan, Tokyo, Japan) and recorded to a computer using pCLAMP10 (Molecular Devices) or WinWCPV4.5 (developed by Dr John Dempster, University of Strathclyde, UK). The data were filtered at 1 kHz and analysed offline using Clampfit 10.2 software or WinWCPV4.5 and Origin 9.1 software (OriginLab, Northampton, MA). […]

T1 sequence (Q9UBN4 whole entry): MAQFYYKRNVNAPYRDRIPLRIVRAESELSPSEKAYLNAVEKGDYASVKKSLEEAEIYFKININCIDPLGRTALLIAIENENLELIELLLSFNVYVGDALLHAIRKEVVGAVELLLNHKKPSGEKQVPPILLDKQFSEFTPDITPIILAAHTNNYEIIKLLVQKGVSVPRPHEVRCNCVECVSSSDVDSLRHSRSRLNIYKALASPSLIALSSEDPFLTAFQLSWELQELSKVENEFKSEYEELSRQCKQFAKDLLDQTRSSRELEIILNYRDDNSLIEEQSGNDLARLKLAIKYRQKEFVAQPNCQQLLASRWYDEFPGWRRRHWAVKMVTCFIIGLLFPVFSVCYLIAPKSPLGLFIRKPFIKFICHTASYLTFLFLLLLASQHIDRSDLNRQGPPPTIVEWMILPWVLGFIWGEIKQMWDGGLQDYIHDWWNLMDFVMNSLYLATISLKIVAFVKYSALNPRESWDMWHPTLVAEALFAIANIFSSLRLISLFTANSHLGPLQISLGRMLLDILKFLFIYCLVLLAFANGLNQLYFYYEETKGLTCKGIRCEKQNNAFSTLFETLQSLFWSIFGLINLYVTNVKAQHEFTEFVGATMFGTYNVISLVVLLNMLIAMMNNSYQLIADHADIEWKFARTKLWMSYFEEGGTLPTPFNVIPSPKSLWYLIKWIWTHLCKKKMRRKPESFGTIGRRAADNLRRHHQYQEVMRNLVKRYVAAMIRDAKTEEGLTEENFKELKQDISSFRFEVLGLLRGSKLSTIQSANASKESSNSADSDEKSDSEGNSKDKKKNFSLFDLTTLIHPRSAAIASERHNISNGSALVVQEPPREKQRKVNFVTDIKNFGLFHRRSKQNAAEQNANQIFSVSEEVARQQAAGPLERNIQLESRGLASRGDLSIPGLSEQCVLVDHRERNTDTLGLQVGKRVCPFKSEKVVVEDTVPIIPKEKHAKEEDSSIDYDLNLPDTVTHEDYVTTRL
T1 sequence (P48995 whole entry): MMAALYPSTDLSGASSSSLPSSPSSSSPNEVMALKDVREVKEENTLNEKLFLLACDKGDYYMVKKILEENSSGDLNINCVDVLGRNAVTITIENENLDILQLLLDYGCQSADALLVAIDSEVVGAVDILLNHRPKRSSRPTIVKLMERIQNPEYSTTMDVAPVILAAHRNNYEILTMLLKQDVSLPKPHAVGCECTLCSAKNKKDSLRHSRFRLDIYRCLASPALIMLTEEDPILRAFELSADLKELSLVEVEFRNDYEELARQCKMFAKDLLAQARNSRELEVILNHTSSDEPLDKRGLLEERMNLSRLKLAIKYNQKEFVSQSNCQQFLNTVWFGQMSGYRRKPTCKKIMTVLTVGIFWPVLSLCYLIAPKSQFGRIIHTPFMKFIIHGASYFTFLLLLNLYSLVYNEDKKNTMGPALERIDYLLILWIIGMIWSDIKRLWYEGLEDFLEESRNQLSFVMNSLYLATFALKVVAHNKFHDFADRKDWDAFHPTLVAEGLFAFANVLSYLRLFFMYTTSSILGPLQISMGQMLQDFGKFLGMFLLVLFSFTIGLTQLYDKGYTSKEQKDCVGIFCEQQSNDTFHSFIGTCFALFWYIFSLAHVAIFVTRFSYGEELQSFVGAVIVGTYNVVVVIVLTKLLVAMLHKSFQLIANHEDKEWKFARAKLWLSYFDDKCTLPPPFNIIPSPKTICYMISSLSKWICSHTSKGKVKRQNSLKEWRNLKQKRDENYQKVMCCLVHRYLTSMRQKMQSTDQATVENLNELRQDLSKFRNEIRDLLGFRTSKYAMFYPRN
T2 sequence (O94759 whole entry): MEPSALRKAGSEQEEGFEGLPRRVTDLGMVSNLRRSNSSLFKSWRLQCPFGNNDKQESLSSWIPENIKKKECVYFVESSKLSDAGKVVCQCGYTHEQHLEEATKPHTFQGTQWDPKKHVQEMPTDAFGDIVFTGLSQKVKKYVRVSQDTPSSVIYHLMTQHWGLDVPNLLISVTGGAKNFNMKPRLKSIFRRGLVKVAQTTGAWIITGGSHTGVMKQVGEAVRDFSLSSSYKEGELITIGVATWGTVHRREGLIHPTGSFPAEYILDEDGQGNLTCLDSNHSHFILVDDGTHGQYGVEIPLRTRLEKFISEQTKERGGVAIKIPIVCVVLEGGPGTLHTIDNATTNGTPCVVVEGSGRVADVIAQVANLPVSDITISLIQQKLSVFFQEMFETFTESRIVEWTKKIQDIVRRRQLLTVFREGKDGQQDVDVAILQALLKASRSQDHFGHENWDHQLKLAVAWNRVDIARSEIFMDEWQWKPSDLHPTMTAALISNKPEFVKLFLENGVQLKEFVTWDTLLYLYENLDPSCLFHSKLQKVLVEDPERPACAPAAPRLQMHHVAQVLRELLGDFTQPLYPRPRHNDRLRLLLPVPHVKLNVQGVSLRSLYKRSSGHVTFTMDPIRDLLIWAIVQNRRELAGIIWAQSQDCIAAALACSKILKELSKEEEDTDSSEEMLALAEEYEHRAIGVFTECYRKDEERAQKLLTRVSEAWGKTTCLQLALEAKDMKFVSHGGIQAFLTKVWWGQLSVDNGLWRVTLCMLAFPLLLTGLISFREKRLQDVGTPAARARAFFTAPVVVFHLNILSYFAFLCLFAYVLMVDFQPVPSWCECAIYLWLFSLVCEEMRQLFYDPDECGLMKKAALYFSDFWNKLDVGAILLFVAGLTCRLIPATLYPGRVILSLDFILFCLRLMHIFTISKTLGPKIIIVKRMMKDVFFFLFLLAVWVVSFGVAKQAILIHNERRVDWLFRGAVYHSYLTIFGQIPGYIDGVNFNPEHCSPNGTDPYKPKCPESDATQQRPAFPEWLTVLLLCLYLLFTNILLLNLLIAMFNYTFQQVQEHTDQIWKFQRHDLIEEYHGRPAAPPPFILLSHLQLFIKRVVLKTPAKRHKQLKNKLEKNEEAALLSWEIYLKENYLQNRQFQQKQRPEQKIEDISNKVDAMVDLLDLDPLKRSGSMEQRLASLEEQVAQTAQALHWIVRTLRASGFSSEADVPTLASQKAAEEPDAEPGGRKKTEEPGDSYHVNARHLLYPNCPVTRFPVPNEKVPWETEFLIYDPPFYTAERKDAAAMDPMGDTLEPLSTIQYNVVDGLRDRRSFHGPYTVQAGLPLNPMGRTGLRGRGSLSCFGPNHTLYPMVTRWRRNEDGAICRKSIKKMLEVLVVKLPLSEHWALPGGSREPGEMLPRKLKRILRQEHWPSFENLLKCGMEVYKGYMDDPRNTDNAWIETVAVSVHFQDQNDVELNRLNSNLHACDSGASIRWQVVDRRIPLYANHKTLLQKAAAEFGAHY

Cn1c(=O)n(CCCO)c(=O)c2c1nc(Oc1ccc(Cl)c(OC(F)(F)F)c1)n2Cc1ccc(Cl)cc1 [AM237]
Hill slope, inhibition of EA response (TRPC4:C1 channels [1]): –1.3
Effect of pretreatment on basal [Ca2+]i (TRPC4:C1 channels [1]; 0.03–30 nM AM237): did not affect
Activation upon acute administration ([Ca2+]i) (TRPC4:C1 channels [1]; 3-300 nM AM237): lack of activation
Activation or inhibition of TRPM2 (TRPM2): no activation or inhibition
Effect on whole-cell currents at +100 and -100 mV (WT HEK 293 cells): no significant effect
Inhibition of currents induced by EA (TRPC4:C1 channels [2]): full inhibition
